In US9505781B2, “Compositions comprising thienopyrimidine and thienopyridine compounds and methods of use thereof” (The Regents of the University of Michigan, priority 2013, dated 2016):

Target: T1, menin-MLL interaction (Homo sapiens, UniProt O00255)
T1 sequence (O00255 1-610): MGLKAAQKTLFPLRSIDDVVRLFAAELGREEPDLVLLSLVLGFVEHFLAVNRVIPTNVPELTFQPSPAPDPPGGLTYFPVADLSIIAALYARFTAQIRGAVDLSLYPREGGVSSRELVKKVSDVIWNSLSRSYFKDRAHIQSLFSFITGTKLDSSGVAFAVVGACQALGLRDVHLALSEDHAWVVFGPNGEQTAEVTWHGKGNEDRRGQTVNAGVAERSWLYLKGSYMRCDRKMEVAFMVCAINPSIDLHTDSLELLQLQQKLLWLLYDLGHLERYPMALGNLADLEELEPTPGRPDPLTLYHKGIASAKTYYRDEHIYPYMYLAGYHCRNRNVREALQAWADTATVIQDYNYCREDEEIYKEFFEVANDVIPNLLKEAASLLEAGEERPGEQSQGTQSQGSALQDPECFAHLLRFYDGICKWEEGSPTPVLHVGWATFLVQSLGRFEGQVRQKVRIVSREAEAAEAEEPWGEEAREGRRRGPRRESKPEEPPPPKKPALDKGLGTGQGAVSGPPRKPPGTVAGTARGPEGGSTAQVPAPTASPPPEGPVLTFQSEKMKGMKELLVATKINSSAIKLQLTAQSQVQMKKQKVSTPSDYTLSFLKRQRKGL
Assay: biochemical
From the text: Compounds that inhibit the interaction decrease the fluorescence anisotropy which is being used as a read-out for compound screening and for IC50 determination.

| IC50 [nM] | Structure (SMILES) |
| --- | --- |
| 100 to 500 | OCCNN(c1ncnc2sc(CC(F)(F)F)cc12)C1CCN(Cc2ccccc2)CC1 [Compound 125] |
| 500 to 2000 | CN1CCN(Cc2ccc(CN3CCC(CNc4ncnc5sc(CC(F)(F)F)cc45)CC3)cc2)CC1 [Compound 267] |
| 100 to 500 | N#CCc1ccc(CC(=O)N2CCN(c3ncnc4sc(CC(F)(F)F)cc34)CC2)cc1 [Compound 77] |
| < 100 | Cc1cn[nH]c1Cn1c(C#N)cc2c(C)c(CN3CCC(Nc4ncnc5sc(CC(F)(F)F)cc45)CC3)ccc21 [Compound 330] |
| 500 to 2000 | NS(=O)(=O)Cc1cccc(CC(=O)N2CCN(c3ncnc4sc(CC(F)(F)F)cc34)CC2)c1 [Compound 96] |
| 500 to 2000 | FC(F)(F)Cc1cc2c(NCC3CCN(Cc4ccccc4)CC3)ncnc2s1 [Compound 277] |
| 100 to 500 | OCc1ccccc1CN1CCC(Nc2ncnc3sc(CC(F)(F)F)cc23)CC1 [Compound 110] |
| < 100 | Cc1c(CN2CCC(Nc3ncnc4sc(CC(F)(F)F)cc34)CC2)ccc2c1cc(C#N)n2CCN1CCN(C(=O)Cc2ccccc2)CC1 [Compound 340] |
| 100 to 500 | NCc1ccccc1CN1CCC(Nc2ncnc3sc(CC(F)(F)F)cc23)CC1 [Compound 121] |
| 500 to 2000 | CC1(C)CN=C(N2CCN(c3ncnc4sc(CCc5ccccc5)cc34)CC2)S1 [Compound 35] |
| 100 to 500 | FC(F)(F)Cc1cc2c(NCC3CCN(Cc4ccc(N5CCCCC5)cc4)CC3)ncnc2s1 [Compound 255] |
| 500 to 2000 | CCCc1cc2c(NC3CCN(Cc4ccccc4Br)CC3)ncnc2s1 [Compound 152] |
| < 100 | N#Cc1cc2c(C3CC3)c(CN3CCC(Nc4ncnc5sc(CC(F)(F)F)cc45)CC3)ccc2[nH]1 [Compound 293] |
| < 100 | Cc1c(CN2CCC(Nc3ncnc4sc(CC(F)(F)F)cc34)CC2)c(O)cc2[nH]c(C#N)cc12 [Compound 384] |
| 100 to 500 | FC(F)(F)Cc1cc2c(N[C@@H]3[C@@H]4CC[C@H]3CN(Cc3ccccc3)C4)ncnc2s1 [Compound 135] |
| < 100 | OCc1cnc2sc(CC(F)(F)F)cc2c1NC1CCN(Cc2ccccc2)CC1 [Compound 280] |
| 500 to 2000 | CC(=O)c1ccc(CN2CCC(CNc3ncnc4sc(CC(F)(F)F)cc34)CC2)cc1 [Compound 270] |
| < 100 | N#Cc1cc2cc(CN3CCC(Nc4ncnc5sc(CC(F)(F)F)cc45)C(N)C3)ccc2[nH]1 (stereo not shown) [Compound 160] |
| 500 to 2000 | FC(F)(F)Cc1cc2c(N3CCN(c4nnc(CCCc5ccccc5)s4)CC3)ncnc2s1 [Compound 41] |
| 500 to 2000 | FC(F)(F)Cc1cc2c(NCC3CCN(Cc4ccc(Cl)cc4C(F)(F)F)CC3)ncnc2s1 [Compound 269] |
| 100 to 500 | FC(F)(F)Cc1cc2c(NC3CCN(Cc4ccc(CN5CCCCC5)cc4)CC3)ncnc2s1 [Compound 116] |
| < 100 | N#Cc1cc2cc(CN3CCC(Nc4ncnc5sc(CC(F)(F)F)cc45)C(NCc4cccc(F)c4)C3)ccc2[nH]1 (stereo not shown) [Compound 289] |

| IC50 [nM] | Structure (SMILES) |
| --- | --- |
| 100 to 500 | N#Cc1cc2cc(CN3CCC(Nc4ncnc5sc(CC(F)(F)F)cc45)CC3)ccc2n1Cc1cc(OCCCC2CCCC2)n[nH]1 [Compound 416] |
| 500 to 2000 | N#Cc1cc2cc(CN3CCC(Nc4c(COCCC5CCCC5)cnc5sc(CC(F)(F)F)cc45)CC3)ccc2[nH]1 [Compound 418] |
| 100 to 500 | CS(=O)(=O)N(CC(F)(F)F)c1ccc(CC(=O)N2CCN(c3ncnc4sc(CC(F)(F)F)cc34)CC2)cc1 [Compound 85] |
| < 100 | N#Cc1cc2cc(CN3CCC(Nc4ncnc5sc(CC(F)(F)F)cc45)CC3)ccc2n1CC(O)(CO)CN1CCOCC1 (stereo not shown) [Compound 333] |
| < 100 | Cc1c(CN2CCC(Nc3ncnc4sc(CC(F)(F)F)cc34)CC2)ccc2c1cc(C#N)n2CC1CCC(=O)N1 (stereo not shown) [Compound 427] |
| 500 to 2000 | NS(=O)(=O)c1ccc(CN2CCC(Nc3ncnc4sc(CC(F)(F)F)cc34)CC2)cc1 [Compound 156] |
| 500 to 2000 | CC1(C)CN=C(N2CCN(c3ncnc4sc(CCCCc5ccccc5)cc34)CC2)S1 [Compound 40] |
| < 100 | CC(=O)NCCC(O)(CO)Cn1c(C#N)cc2c(C)c(CN3CCC(Nc4ncnc5sc(CC(F)(F)F)cc45)CC3)ccc21 (stereo not shown) [Compound 371] |
| 500 to 2000 | CC1(C)CN=C(N2CCN(c3ncnc4sc(CCC5CC5)cc34)CC2)S1 [Compound 36] |
| 100 to 500 | N#Cc1cc2ccc(CN3CCC(Nc4ncnc5sc(CC(F)(F)F)cc45)CC3)cc2[nH]1 [Compound 229] |
| 500 to 2000 | FC(F)(F)Cc1cc2c(NCC3CCN(Cc4ccccc4C(F)(F)F)CC3)ncnc2s1 [Compound 274] |
| < 100 | COc1cc2c(cc(C#N)n2Cc2c[nH]nn2)c(C)c1CN1CCC(Nc2ncnc3sc(CC(F)(F)F)cc23)CC1 [Compound 392] |
| 500 to 2000 | COCCCc1cc2c(N3CCN(C4=NCC(C)(C)S4)CC3)ncnc2s1 [Compound 25] |
| 500 to 2000 | O=C(N1CCCC1)N1CCN(c2ncnc3sc(CC(F)(F)F)cc23)CC1 [Compound 86] |
| 500 to 2000 | CC(C)c1cc2c(N3CCN(c4nnc(C(F)(F)F)s4)CC3)ncnc2s1 [Compound 32] |
| < 100 | N#Cc1cc2cc(CN3CCC(Nc4ncnc5sc(CC(F)(F)F)cc45)CC3)ccc2n1CC(CO)OCC1CCCCC1 (stereo not shown) [Compound 320] |
| 100 to 500 | Cc1c(CC(F)(F)F)sc2ncnc(NC3CCN(Cc4ccccc4)CC3)c12 [Compound 126] |
| 100 to 500 | Oc1ccccc1CN1CCC(Nc2ncnc3sc(CC(F)(F)F)cc23)CC1 [Compound 114] |
| 100 to 500 | COCCOCCn1nc(Cn2c(C#N)cc3cc(CN4CCC(Nc5ncnc6sc(CC(F)(F)F)cc56)CC4)ccc32)cc1C [Compound 411] |
| 500 to 2000 | N#CCc1ccc2[nH]cc(CN3CCC(Nc4ncnc5sc(CC(F)(F)F)cc45)CC3)c2c1 [Compound 252] |
| < 100 | CC(C)NCCS(=O)(=O)Nc1ccc(CC(=O)N2CCN(c3ncnc4sc(CC(F)(F)F)cc34)CC2)cc1 [Compound 60] |
| 100 to 500 | FC(F)(F)Cc1cc2c(N[C@H]3CCN(Cc4ccccc4)C[C@@H]3NCCC3CCCC3)ncnc2s1 [Compound 171] |

| IC50 [nM] | Structure (SMILES) |
| --- | --- |
| < 100 | N#Cc1cc2cc(CN3CCC(Nc4ncnc5sc(CC(F)(F)F)cc45)CC3)ccc2n1CC(=O)NC1CC1 [Compound 291] |
| < 100 | CCCCC(O)(CO)Cn1c(C#N)cc2cc(CN3CCC(Nc4ncnc5sc(CC(F)(F)F)cc45)CC3)ccc21 (stereo not shown) [Compound 308] |
| 100 to 500 | FC(F)(F)Cc1cc2c(N3CCN(c4nnc(CC(F)(F)F)s4)CC3)ncnc2s1 [Compound 8] |
| 500 to 2000 | FC(F)(F)Cc1cc2c(NCC3CCN(Cc4ccc(OC(F)(F)F)cc4)CC3)ncnc2s1 [Compound 271] |
| 100 to 500 | CNS(=O)(=O)c1ccc(CC(=O)N2CCN(c3ncnc4sc(CC(F)(F)F)cc34)CC2)cc1 [Compound 82] |
| 100 to 500 | OCc1cccc2c(CN3CCC(Nc4ncnc5sc(CC(F)(F)F)cc45)CC3)c[nH]c12 [Compound 242] |
| 500 to 2000 | O=C(N1CCCCC1)N1CCN(c2ncnc3sc(CC(F)(F)F)cc23)CC1 [Compound 91] |
| < 100 | N#Cc1cc2cc(CN3CCC(Nc4c(CO)cnc5sc(CC(F)(F)F)cc45)CC3)ccc2[nH]1 [Compound 278] |
| < 100 | Cc1c(CN2CCC(Nc3ncnc4sc(CC(F)(F)F)cc34)CC2)ccc2c1cc(C#N)n2Cc1ncco1 [Compound 353] |
| 100 to 500 | NCc1nnc(N2CCN(c3ncnc4sc(CC(F)(F)F)cc34)CC2)s1 [Compound 4] |
| < 100 | COc1cc2[nH]c(C#N)cc2cc1CN1CCC(Nc2ncnc3sc(CC(F)(F)F)cc23)CC1 [Compound 181, 6-methoxy-5-((4-((6-(2,2,2-trifluoroethyl)thieno[2,3-d]pyrimidin-4-yl)amino)piperidin-1-yl)methyl)-1H-indole-2-carbonitrile] |
| < 100 | N#Cc1cc2cc(CN3CC[C@@H](Nc4ncnc5sc(CC(F)(F)F)cc45)[C@@H](CO)C3)ccc2[nH]1 [Compound 164] |
| < 100 | N#Cc1cc2cc(C(CO)N3CCC(Nc4ncnc5sc(CC(F)(F)F)cc45)CC3)ccc2[nH]1 (stereo not shown) [Compound 211] |
| 500 to 2000 | N#Cc1nc2cc(CN3CCC(Nc4ncnc5sc(CC(F)(F)F)cc45)CC3)ccc2[nH]1 [Compound 249] |
| < 100 | N#Cc1cc2cc(CN3CCC(Nc4ncnc5sc(CC(F)(F)F)cc45)CC3)ccc2n1C[C@@H](O)CO [Compound 187] |
| < 100 | Cc1ncc(Cn2c(C#N)cc3c(C)c(CN4CCC(Nc5ncnc6sc(CC(F)(F)F)cc56)CC4)ccc32)s1 [Compound 323] |
| 100 to 500 | Cn1cc(S(=O)(=O)Nc2ccc(CC(=O)N3CCN(c4ncnc5sc(CC(F)(F)F)cc45)CC3)cc2)cn1 [Compound 83] |
| 100 to 500 | N#Cc1cc2c(O)c(CN3CCC(Nc4ncnc5sc(CC(F)(F)F)cc45)CC3)ccc2[nH]1 [Compound 235] |
| 100 to 500 | FC(F)(F)Cc1cc2c(NC3CCN(Cc4ccc(N5CCOCC5)cc4Cl)CC3)ncnc2s1 [Compound 115] |
| < 100 | Cc1c(CN2CCC(Nc3ncnc4sc(CC(F)(F)F)cc34)CC2)ccc2c1cc(C#N)n2CCN1CCNC(C)C1 (stereo not shown) [Compound 369] |
| 100 to 500 | FC(F)(F)Cc1cc2c(N3CCN(CC4CCCCC4)CC3)ncnc2s1 [Compound 9] |
| < 100 | N#Cc1cc2nc(CN3CCC(Nc4ncnc5sc(CC(F)(F)F)cc45)CC3)ccc2[nH]1 [Compound 424] |

| Structure (SMILES) | IC50 [nM] |
| --- | --- |
| OCCCN(c1ncnc2sc(CC(F)(F)F)cc12)C1CCN(Cc2ccccc2)CC1 [Compound 127] | 100 to 500 |
